Measurements as given in patent publication US20250034182A1, “PHOSPHOLIPID COMPOUNDS AND METHODS OF MAKING AND USING THE SAME” (priority 2021, published 2025).

System: Respiratory syncytial virus recombinant with luciferase (RSV-Luc5) in HEp-2 cells
Experiment: HEp-2 RSV-Luc5 384-well assay (EC50 RSVFLUC Hep2-384, Example R)
Format: cell-based
Conditions: human respiratory syncytial virus, HEp-2, 72 h, read-out: RSV Hep-2 FLuc EC50 (nM) (per Ex. R)
Excerpt: HEp-2 cell line was purchased from ATCC (Manassas, VA Cat #CCL-23) and maintained in Dulbecco's […] (DMEM) (Corning, New York, NY, Cat #15-018CM) supplemented with 10% fetal bovine serum (FBS) (Hyclone, Logan, UT, Cat #SH30071-03) and 1× Penicillin-Streptornycin-L-Glutamine (Corning, New York, NY, Cat #30-009-CI). Cells were passaged 2 times per week to maintain sub-confluent densities and were used for experiments at passage 5-20. Respiratory syncytial virus recombinant with luciferase (RSV-Luc5) direct pelleted virus (≥1×107 TCID50/ml) was purchased from Microbiologics (Saint Cloud, MN). Viral replication was determined in HEp-2 cells in the following manner.
Compounds are prepared in 384-well polypropylene plates (Greiner, Monroe, NC, Cat #784201) with 8 compounds per plate in grouped replicates of 4 at 10 serially diluted concentrations (1:3).
HEp-2 cells were suspended in DMEM (supplemented with 10% FBS and 1×Penicillin-Streptonycin-L-Glutimine) and 60 μL of 4,000 cells per well were seeded into 384-well plates (Greiner, Monroe, NC, Cat #781080) using Biotek MultiFlo dispenser. After overnight incubation at 37° C. and 5% CO2, 0.4 uL of three-fold serial dilutions of compound was added to each well using a Biomek FX pipette station. RSV-Luc5 viruses were diluted in DMEM (supplemented with 10% FBS and 1× Penicillin-Streptonycin-L-Glutainie) at an MOI=0.5. Virus suspension was added to each 384-well compound plate at 20 uL per well using a Biotek MultiFlo dispenser. The assay plates were incubated for 3 days at 37° C. and 5% CO2. At the end of incubation, One-Glo reagent (Promega, Madison, WI, Cat #E6120) was prepared. The assay plate and the reagent were equilibrated to room temperature for 30 minutes. 50 uL per well of medium was removed from assay plate and 40 uL per well of One-Glo reagent was added to each plate by Biomek FX. The plates were sat at room temp for 15 minutes. Viral replication was then assessed by measuring luminescence signal using and Envision plate reader. Remdesivir was used as positive control and DMSO was used as negative control. Values were normalized to the positive and negative controls (as 0% and 100% replication, respectively) and data was fitted using non-linear regression analysis by Gilead's dose response tool. The EC50 value for each compound was then determined as the concentration reducing the viral replication by 50%.

| Compound | EC50 |
| --- | --- |
| CCCCCCCCCCCCCCCCCC[C@@H](COP(=O)(O)OC[C@@]1(C#N)O[C@@H](c2ccc3c(N)ncnn23)[C@H](O)[C@@H]1O)OCc1cc(F)cc(C#N)c1 [Compound 37, ((2R,3S,4R)-5-(4-aminopyrrolo[2,1-f][1,2,4]triazin-7-yl)-2-cyano-3,4-dihydroxytetrahydrofuran-2-yl)methyl ((S)-2-((3-cyano-5-fluorobenzyl)oxy)icosyl) hydrogen phosphate] | 304 nM |
| CCCCCCCCCCCCCCCCCCOC[C@H](COP(=O)(O)OC[C@@]1(C#N)O[C@@H](c2ccc3c(N)ncnn23)[C@H](O)[C@@H]1O)OCc1cccc(C#N)n1 [Compound 68, ((2R,3S,4R)-5-(4-aminopyrrolo[2,1-f][1,2,4]triazin-7-yl)-2-cyano-3,4-dihydroxytetrahydrofuran-2-yl)methyl ((R)-2-((6-cyanopyridin-2-yl)methoxy)-3-(octadecyloxy)propyl) hydrogen phosphate] | 118 nM |
| CCCCCCCCCCCCCCOC[C@H](COP(=O)(O)OC[C@@]1(C#N)O[C@@H](c2ccc3c(N)ncnn23)[C@H](O)[C@@H]1O)OCc1ccc(C#N)cc1F [Compound 75, ((2R,3S,4R,5S)-5-(4-aminopyrrolo[2,1-f][1,2,4]triazin-7-yl)-2-cyano-3,4-dihydroxytetrahydrofuran-2-yl)methyl ((R)-2-((4-cyano-2-fluorobenzyl)oxy)-3-(tetradecyloxy)propyl) hydrogen phosphate] | 385 nM |
| CCCCCCCCCCCCCCCCCCOC[C@H](COP(=O)(O)OC[C@@]1(C#N)O[C@@H](c2ccc3c(N)ncnn23)[C@H](O)[C@@H]1O)OCc1ccc(C#N)c(Cl)c1 [Compound 7, ((2R,3S,4R,5S)-5-(4-aminopyrrolo[2,1-f][1,2,4]triazin-7-yl)-2-cyano-3,4-dihydroxytetrahydrofuran-2-yl)methyl ((R)-2-((3-chloro-4-cyanobenzyl)oxy)-3-(octadecyloxy)propyl) hydrogen phosphate] | 84 nM |
| CCCCCCCCCCCCCCCCCOC[C@H](COP(=O)(O)OC[C@@]1(C#N)O[C@@H](c2ccc3c(N)ncnn23)[C@H](O)[C@@H]1O)OCc1cc(F)cc(C#N)c1 [Compound 53, ((2R,3S,4R,5S)-5-(4-aminopyrrolo[2,1-f][1,2,4]triazin-7-yl)-2-cyano-3,4-dihydroxytetrahydrofuran-2-yl)methyl ((R)-2-((3-cyano-5-fluorobenzyl)oxy)-3-(heptadecyloxy)propyl) hydrogen phosphate] | 113 nM |
| CCCCCCCCCCCCCCCCCCCC[C@H](COP(=O)(O)OC[C@@]1(C#N)O[C@@H](c2ccc3c(N)ncnn23)[C@H](O)[C@@H]1O)Oc1cccc(C#N)c1 [Compound 51, ((2R,3S,4R,5S)-5-(4-aminopyrrolo[2,1-f][1,2,4]triazin-7-yl)-2-cyano-3,4-dihydroxytetrahydrofuran-2-yl)methyl ((R)-2-(3-cyanophenoxy)docosyl) hydrogen phosphate] | 421 nM |
| CCCCCCCCCCCCCCCCCCOC[C@H](COP(=O)(O)OC[C@@]1(C#N)O[C@@H](c2ccc3c(N)ncnn23)[C@H](O)[C@@H]1O)OCc1ccc(C#N)cc1OC [Compound 73, ((2R,3S,4R)-5-(4-aminopyrrolo[2,1-f][1,2,4]triazin-7-yl)-2-cyano-3,4-dihydroxytetrahydrofuran-2-yl)methyl ((R)-2-((4-cyano-2-methoxybenzyl)oxy)-3-(octadecyloxy)propyl) hydrogen phosphate] | 195 nM |
| CCCCCCCCCCCCCCCCC[C@H](COP(=O)(O)OC[C@@]1(C#N)O[C@@H](c2ccc3c(N)ncnn23)[C@H](O)[C@@H]1O)OCc1cc(F)cc(C#N)c1 [Compound 36, ((2R,3S,4R,5S)-5-(4-aminopyrrolo[2,1-f][1,2,4]triazin-7-yl)-2-cyano-3,4-dihydroxytetrahydrofuran-2-yl)methyl ((R)-2-((3-cyano-5-fluorobenzyl)oxy)nonadecyl) hydrogen phosphate] | 155 nM |
| CCCCCCCCCCCCCCCCCCOC[C@H](COP(=O)(O)OC[C@@]1(C#N)O[C@@H](c2ccc3c(N)ncnn23)[C@H](O)[C@@H]1O)Oc1cccc(C#N)n1 [Compound 21, ((2R,3S,4R,5S)-5-(4-aminopyrrolo[2,1-f][1,2,4]triazin-7-yl)-2-cyano-3,4-dihydroxytetrahydrofuran-2-yl)methyl ((R)-2-((6-cyanopyridin-2-yl)oxy)-3-(octadecyloxy)propyl) hydrogen phosphate] | 136 nM |
| CCCCCCCCCCCCCCCCCCOC[C@H](COP(=O)(O)OC[C@@]1(C#N)O[C@@H](c2ccc3c(N)ncnn23)[C@H](O)[C@@H]1O)OCc1cc(F)cc(C#N)c1 [Compound 1, ((2R,3S,4R,5S)-5-(4-aminopyrrolo[2,1-f][1,2,4]triazin-7-yl)-2-cyano-3,4-dihydroxytetrahydrofuran-2-yl)methyl ((R)-2-((3-cyano-5-fluorobenzyl)oxy)-3-(octadecyloxy)propyl) hydrogen phosphate] | 100 nM |
| CCCCCCCCCCCCCCCCCCC[C@H](COP(=O)(O)OC[C@@]1(C#N)O[C@@H](c2ccc3c(N)ncnn23)[C@H](O)[C@@H]1O)OCc1cc(F)cc(C#N)c1 [Compound 25, ((2R,3S,4R,5S)-5-(4-aminopyrrolo[2,1-f][1,2,4]triazin-7-yl)-2-cyano-3,4-dihydroxytetrahydrofuran-2-yl)methyl ((R)-2-((3-cyano-5-fluorobenzyl)oxy)henicosyl) hydrogen phosphate] | 291 nM |
| CCCCCCCCCCCCCCCCCCOC[C@H](COP(=O)(O)OC[C@@]1(C#N)O[C@@H](c2ccc3c(N)ncnn23)[C@H](O)[C@@H]1O)OCc1ccc(C#N)nc1 [Compound 19, ((2R,3S,4R,5S)-5-(4-aminopyrrolo[2,1-f][1,2,4]triazin-7-yl)-2-cyano-3,4-dihydroxytetrahydrofuran-2-yl)methyl ((R)-2-((6-cyanopyridin-3-yl)methoxy)-3-(octadecyloxy)propyl) hydrogen phosphate] | 48 nM |
